In patent US12459939B2 (SHANGHAI RINGENE BIOPHARMA CO., LTD., priority 2019, dated 2025):

Assays:
[1] = Metabolic stability in rat liver microsomes; format: in vitro ADME; settings: liver microsomes 0.5 mg/mL, NADPH, 1 μM compound, read-out: Rat microsomal T1/2
Method: (§1) (1) Metabolic stability test: 150 μL of liver microsomes (final concentration was 0.5 mg/mL) were subjected to metabolic stability incubation, the system containing NADPH (final concentration was 1 mM), 1 μM of the test compound and the positive control midazolam or the negative control atenolol, the reaction was terminated with acetonitrile containing tinidazole at 0 min, 5 min, 10 min, and 30 min, respectively, then the mixture was vortexed for 10 min, and centrifuged at 15000 rmp for 10 min, 50 μL of the supernatant was injected into 96 well. The metabolic stability of the compound was calculated by measuring the relative reduction of the original drug. (See Table 3 for specific values)

[2] = Metabolic stability in mouse liver microsomes; format: in vitro ADME; settings: liver microsomes 0.5 mg/mL, NADPH, 1 μM compound, read-out: Mouse microsomal T1/2
Method: as §1

[3] = Metabolic stability in dog liver microsomes; format: in vitro ADME; settings: liver microsomes 0.5 mg/mL, NADPH, 1 μM compound, read-out: Dog microsomal T1/2
Method: as §1

BRD4-BD1 = molecular target: T1, BRD4-BD1 (Homo sapiens, UniProt O60885); experiment: BRD4 AlphaScreen determination (BD1); format: binding; settings: AlphaScreen, protein binding inhibition; read-out: BRD4-BD1 IC50
T1 construct: purchased ReactionBiologyCorp; (RBC)
Method: (§2) (1) 1× Assay buffer was prepared according to the kit requirements of ReactionBiologyCorp. (RBC). (2) Compound concentration gradient preparation: the test compounds were tested at final concentrations starting at 10 μM, with 10 concentrations at 3-fold dilution and single well test was set for each concentration. The positive control compound(+)-JQ-1 was tested at final concentrations starting at 1 μM, with 10 concentrations at 3-fold dilution, and duplicated well test was set for each concentration. The solution was gradient diluted to the corresponding 1000-fold final concentration in a 384-well Source plate, and then 20 nL of the solution was transferred to the 384-well reaction plate with Echo550 to be measured. 20 nL of 100% DMSO was transferred to the Max well, and the highest concentration of the positive compounds were transferred to the Min wells. […] (6) 5 μL of 4× peptide solution was added to each well of the reaction plate, centrifuged at 1000 rpm for 1 min. (7) 10 μL of the assay solution was added, centrifuged at 1000 rpm for 60 seconds, the solution was mixed with gentle shaking, and incubated at room temperature for 60 minutes. (8) Reading with EnVision. (9) The IC50 values of the compounds for protein binding inhibition was obtained by fitting the dose-effect curve with the analytical software GraphPad Prism 5. (See Table 1 for specific values)

BRD4-BD2 = molecular target: T2, BRD4-BD2 (Homo sapiens, UniProt O60885); experiment: BRD4 AlphaScreen determination (BD2); format: binding; settings: AlphaScreen, protein binding inhibition; read-out: BRD4-BD2 IC50
T2 construct: purchased ReactionBiologyCorp; (RBC)
Method: as §2

IEC6 = experiment: Proliferation inhibition of IEC6 cells; format: cell-based; settings: Rattus norvegicus, IEC-6; IEC6 cell line; read-out: proliferation inhibitory activity IC50
Method: (§3) The proliferation inhibitory activity of some of the embodiment compounds against different cell lines such as LNCAP (+R1881), SKM-1, 22RV1, DU145, MOLM13, MDA-PCA-2b, KASUMI 1, THP-1, KG-1, IEC6, H1299, etc., was tested using similar methods in test embodiment 2 and in the literature.

[4] = tested on: LNCAP, SKM-1, MOLM13, KASUMI 1, THP-1, KG-1; experiment: Proliferation inhibition of different cell lines: most sensitive lines; format: cell-based; settings: some cell lines such as LNCAP, read-out: proliferation inhibitory activity IC50
Method: as §3

H1299 = experiment: Proliferation inhibition of H1299 cells; format: cell-based; settings: Homo sapiens, NCI-H1299; H1299 cell line; read-out: proliferation inhibitory activity IC50
Method: as §3

[5] = tested on: most AML cell lines and prostate cancer cell lines; experiment: Proliferation inhibition of different cell lines: AML and prostate cancer lines; format: cell-based; settings: read-out: proliferation inhibitory activity IC50
Method: as §3

MV4-11 cells = experiment: Inhibition of proliferation of MV4-11 cells (CellTiter-Glo); format: cell-based; settings: Homo sapiens, 72 h
Method: Specific experimental steps: 1) Day 0: 96 inoculated cells were digested with trypsin and suspended in cell culture medium, the cell density was detected by an automatic cell counter and the cells were diluted with the culture medium to a suitable density, 100 μL of cell suspension was added to the 96-well plate, and the cell-free medium was used as a control well, and the wells were incubated in a 37° C., 5% CO2 cell incubator overnight; 2) Day 1: A total of 8 concentrations of the compound to be tested in the drug-treated cells were tested at 3-fold dilution, 10 μM was the starting assay concentration of the compound to be tested. Specific steps: 200× compound mother liquor was prepared, the compound was diluted with culture medium to a final concentration of […], that is, 3 μL of 200× compound was added to 197 μL of culture medium, 50 μL diluted compound was added to each well of the 96-well plate, and placed at 37° C., 5% CO2 cell culture incubator for 72 h; 3) Day 4: Cell viability detection: 96-well cell plate was first equilibrated to room temperature, 40 μL of CellTiter-Glo® reagent was added to each well, mixed on a shaker for 2 minutes to fully lyse the cells, incubated at room temperature for 10 minutes to stabilize the luminescence signal, and the luminescence value was read by the Envision microplate reader; 4) data processing was performed by GraphPad Prism 5.0 software to analyze the data, and nonlinear S-curve regression was used to fit the data to obtain a dose-effect curve, and from which the ICso value was calculated. Inhibition rate %=(DMSO treated cell wells−compound treated cell wells)/(DMSO treated cell wells−cell free medium wells)×100. The ICso value was obtained by the four-parameter regression method using the random software in the microplate reader. (See Table 2 for specific values)

[6] = In vivo pharmacokinetics in mice; settings: male, Balb c, mouse, plasma, po, 5 mg/kg
Method: Six male SPF-grade SD rats or Balb c mice (Shanghai B&K laboratory animals) were divided into two groups and the test compounds were configured into suitable solutions or suspensions; one group was administered intravenously and one group was administered orally. Blood was collected by jugular vein puncture, and each sample was collected about 0.2 mL/time point, heparin sodium was used for anticoagulation, the blood collection time points were as follows: before administration and 5, 15 and 30 minutes, 1, 2, 4, 6, 8 and 24 h after administration, the blood sample was collected and placed on ice, centrifuged to separate the plasma (centrifugation conditions: 8000 rpm, 6 minutes, 2-8° C.), and the collected plasma was stored at −80° C. before analysis. The plasma samples were analyzed by LC-MS/MS.
According to the blood drug concentration data of the drug, the pharmacokinetic calculation software WinNonlin5.2 non-compartmental model was used to calculate the pharmacokinetic parameters AUC0-t, AUC0-∞, MRT0-∞, Cmax, Tmax, T1/2 and Vd and other parameters and their mean and standard deviation. In addition, the bioavailability (F) was calculated by the following formula.
For samples with a concentration lower than the lower limit of quantification, when calculating the pharmacokinetic parameters, the samples sampled before reaching Cmax should be calculated as zero, and samples sampled after reaching Cmax should be calculated as unquantifiable (BLQ).

[7] = tested on: MV 4-11 transplanted tumor; experiment: Growth inhibition of MV 4-11 transplanted tumor in nude mice; format: in vivo; settings: dose of 15 mpk, oral, daily
Method: The tumor tissue in vigorous growth stage was cut into about 1.5 mm^3 and inoculated subcutaneously in the right armpit of nude mice under sterile conditions. The diameter of subcutaneous transplanted tumor in nude mice was measured with vernier caliper, and the animals were randomly divided into groups when the average tumor volume was about 130 mm^3. […] During the whole experiment, the diameter of the transplanted tumor was measured twice a week, and the weight of mice was weighed at the same time. The calculation formula of tumor volume (TV) was: TV=½×a×b^2, wherein a and b represent the length and width respectively. The relative tumor volume (RTV) was calculated according to the measurement results, and the calculation formula was: RTV=VT/v0. Wherein VO is the tumor volume measured during the administration in cage (i.e., d0), and Vt is the tumor volume at each measurement.

SMILES | half-life at 1 μM [1] | half-life at 1 μM [2] | half-life at 1 μM [3] | IC50 (BRD4-BD1) | IC50 (BRD4-BD2) | IC50 (IEC6) | IC50 [4] | IC50 (H1299) | IC50 [5] | IC50 (MV4-11 cells) | bioavailability [6] | inhibitory rate (growth of transplanted tumor) [7]
CCNC(=O)c1cc2c(=O)n(C)cc(-c3cc(C(C)(C)O)ccc3Oc3c(C)cc(F)cc3C)c2[nH]1 | 2.8 h | 2.83 h | 3.25 h | – | – | – | – | – | – | – | – | –
Cc1cc(F)cc(C)c1Oc1ccc(C(C)(C)O)cc1-c1cn(C)c(=O)c2cc(C(=O)NCC(F)F)[nH]c12 [Embodiment 11, N-(2,2-difluoroethyl)-7-(2-(4-fluoro-2,6-dimethylphenoxy)-5-(2-hydroxyprop-2-yl)phenyl)-5-methyl-4-oxo-4,5-dihydro-1H-pyrrolo[3,2-c] pyridine-2-amide] | 1.28 h | 0.65 h | 6.72 h | 109 nM | 0.57 nM | > 1000 nM | < 100 nM | > 1000 nM | < 1000 nM | 20.4 nM | – | –
CCNC(=O)c1cc2c(-c3cc(C(C)(C)O)ccc3Oc3c(C)cc(F)cc3C)cn(C)c(=O)c2[nH]1 [compound 1, N-ethyl-4-(2-(4-fluoro-2,6-dimethylphenoxy)-5-(2-hydroxyprop-2-yl)phenyl)-6-methyl-7-oxo-6,7-dihydro-1H-pyrrolo[2,3-c]pyridine-2-amide, reference compound] | 1.03 h | 0.317 h | 1.13 h | – | – | – | – | – | – | 32 nM | 25% | about 60%
